Laboratory results: paper PMC5513871 (British Journal of Pharmacology, 2017)
Read-outs that look alike come from different tables or passages of the source.

Key:
[1] = test system: normal dogs under anaesthesia; details: 1 μmol/kg/min; ref Roza and Berman, 1971; cited from earlier work
IK1 = details: read-out: IC50 IK1; ref Filgueiras‐Rama et al., 2012; cited from earlier work
IKACh = details: read-out: IC50 IKACh; ref Filgueiras‐Rama et al., 2012; cited from earlier work
[2] = test system: Langendorff‐perfused sheep heart; details: ref Noujaim et al., 2011; cited from earlier work
IKATP = details: read-out: IC50 IKATP; ref Filgueiras‐Rama et al., 2012; cited from earlier work
AF goat model = details: cited from earlier work
cAVB dogs = test: Proarrhythmia test; type: in vivo, dog; details: cAVB dogs n = 9, paced 1 Hz; PA‐6 2.5 mg/kg/10 min, dofetilide 0.025 mg/kg/5 min
anaesthetized SR dogs = details: 4 mg/kg/40 min, at 40 min; ref Yokoyama et al. (2009); cited from earlier work
[3] = awake goats, 1 week of AF, ref Eijsbouts et al., 2006
[4] = awake goats, 4 weeks of AF, ref Eijsbouts et al., 2006
[5] = awake goats, 8 weeks of AF, ref Eijsbouts et al., 2006
[6] = awake goats, 16 weeks of AF, ref Eijsbouts et al., 2006

Which “Course of events upon infusion” value [1] does the source give for `[Ba+2].[Cl-].[Cl-]` [BaCl2] here?
Its value is “hypotension, flaccid paralysis of skeletal muscles, ventricular tachycardia and fibrillation”.

Which results are given for `CCN(CC)CCCC(C)Nc1ccnc2cc(Cl)ccc12` (stereo not shown) [chloroquine]?
IC50 (IK1): 0.69 µM; IC50 (IKACh): 0.38 µM; Concentration terminating cholinergically induced AF [2]: 10 µM; IC50 (IKATP): 0.51 µM

Which Cardioversion rate (AF goat model; 3 to 4 weeks of pacing induced persistent AF, ref Eijsbouts et al., 2006) does the source give for `c1ccc(C2(c3ccccc3)CC2C2=NCCN2)cc1` (stereo not shown) [cibenzoline] here?
The Cardioversion rate was 78%.

What about the Cardioversion rate (AF goat model; [3]) of the same molecule?
The Cardioversion rate was 80%.

What about the Cardioversion rate (AF goat model; [4]) of the same molecule?
Its Cardioversion rate is 78%.

What about the Cardioversion rate (AF goat model; [5]) of the same molecule?
Its Cardioversion rate is 67%.

And the Cardioversion rate (AF goat model; [6])?
Its Cardioversion rate is 63%.

Which LVMAPD80 (cAVB dogs) does the source give for `CN(CCOc1ccc(NS(C)(=O)=O)cc1)CCc1ccc(NS(C)(=O)=O)cc1` [dofetilide] here?
Its LVMAPD80 is 400 ± 64 ms.

And the QTc (cAVB dogs)?
Its QTc is 600 ± 33 ms.

What about the STV (cAVB dogs) of the same molecule?
Its STV is 1.82 ± 0.88 ms.

With `CC(C)NC[C@@H](O)c1ccc(NS(C)(=O)=O)cc1` [d‐Sotalol] as the molecule, how does the Cardioversion rate (AF goat model; 3 to 4 weeks of pacing induced persistent AF, ref Wijffels et al., 1999) read?
The Cardioversion rate was 92%.

For `O=C(NCC1CCCCN1)c1cc(OCC(F)(F)F)ccc1OCC(F)(F)F` (stereo not shown) [flecainide], which Cardioversion rate (AF goat model; [3]) is on record?
The Cardioversion rate was 60%.

And the Cardioversion rate (AF goat model; [4])?
Its Cardioversion rate is 33%.

And the Cardioversion rate (AF goat model; [5])?
The Cardioversion rate was 33%.

And the Cardioversion rate (AF goat model; [6])?
The Cardioversion rate was 17%.

Which QTc increase (anaesthetized SR dogs) does the source give for `N=C(N)c1ccc(OCCCCCOc2ccc(C(=N)N)cc2)cc1` [pentamidine] here?
The QTc increase was “approx. 8%”.
